Results as given in patent US20230414599A1, “NICOTINAMIDE, NICOTINAMIDE PRECURSORS AND NICOTINAMIDE METABOLITES AND COMPOSITIONS THEREOF FOR REDUCING THE TIME TO RESOLUTION OF SYMPTOMS IN PATIENTS WITH COVID-19 AND OTHER VIRAL INFECTIONS” (CONARIS RESEARCH INSTITUTE AG, priority 2020, published 2023).
Like-named read-outs stand apart in the source and are kept apart here.

System: COVID-19
Conditions: 500 mg IR + 500 mg CICR-NAM daily; for Ability to perform normal activities, complaint scale 0-6, mean change / Ability to perform normal activities, complaint scale 0-6, median change: week 6 - baseline
[1] = week 4, current or former smokers, n = 75
[2] = week 4, patients with cough and fever, n = 15
[3] = week 4, patients with cough, n = 106
[4] = week 4, patients with fever, n = 21
[5] = week 4, ≥1 risk factor for severe COVID-19, n = 117
[6] = BMI ≥30.0 or type 2 diabetes, n = 27
[7] = current or former smokers, n = 75
[8] = patients with cough and fever, n = 15
[9] = ≥1 risk factor for severe COVID-19, n = 117
[10] = week 6, BMI ≥30.0 or type 2 diabetes, n = 27
[11] = week 6, current or former smokers, n = 75
[12] = week 6, patients with cough and fever, n = 15
[13] = week 6, patients with cough, n = 106
[14] = week 6, patients with fever, n = 21
[15] = week 6, ≥1 risk factor for severe COVID-19, n = 117

Structure (SMILES): NC(=O)c1cccnc1 [Nicotinamide, nicotinamide]
- Ability to perform normal activities worse vs baseline, % of patients [1]: 6.67%
- Ability to perform normal activities worse vs baseline, patients [1]: 5
- Ability to perform normal activities, complaint scale 0-6, mean [1]: 0.920
- Ability to perform normal activities, complaint scale 0-6, median [1]: 0.000
- Reduced physical performance constant vs baseline, % of patients [1]: 38.67%
- Reduced physical performance constant vs baseline, patients [1]: 29
- Reduced physical performance improved vs baseline, % of patients [1]: 56.00%
- Reduced physical performance improved vs baseline, patients [1]: 42
- Reduced physical performance worse vs baseline, % of patients [1]: 5.33%
- Reduced physical performance worse vs baseline, patients [1]: 4
- Ability to perform normal activities, complaint scale 0-6, mean [2]: 1.200
- Ability to perform normal activities, complaint scale 0-6, median [2]: 0.0
- Ability to perform normal activities, complaint scale 0-6, mean [3]: 0.736
- Ability to perform normal activities, complaint scale 0-6, median [3]: 0.0
- Ability to perform normal activities, complaint scale 0-6, mean [4]: 1.048
- Ability to perform normal activities, complaint scale 0-6, median [4]: 0.0
- Ability to perform normal activities constant vs baseline, % of patients [5]: 8.55%
- Ability to perform normal activities constant vs baseline, patients [5]: 10
- Ability to perform normal activities improved vs baseline, % of patients [5]: 84.62%
- Ability to perform normal activities improved vs baseline, patients [5]: 99
- Ability to perform normal activities worse vs baseline, % of patients [5]: 6.84%
- Ability to perform normal activities worse vs baseline, patients [5]: 8
- Ability to perform normal activities, complaint scale 0-6, mean [5]: 0.880
- Ability to perform normal activities, complaint scale 0-6, median [5]: 0.0
- Reduced physical performance constant vs baseline, % of patients [5]: 47.86%
- Reduced physical performance constant vs baseline, patients [5]: 56
- Reduced physical performance improved vs baseline, % of patients [5]: 47.01%
- Reduced physical performance improved vs baseline, patients [5]: 55
- Reduced physical performance worse vs baseline, % of patients [5]: 5.13%
- Reduced physical performance worse vs baseline, patients [5]: 6
- Ability to perform normal activities, complaint scale 0-6, mean change [6]: −1.741
- Ability to perform normal activities, complaint scale 0-6, median change [6]: −2.000
- Ability to perform normal activities, complaint scale 0-6, mean change [7]: −2.587
- Ability to perform normal activities, complaint scale 0-6, median change [7]: −3.000
- Ability to perform normal activities, complaint scale 0-6, mean change [8]: −2.933
- Ability to perform normal activities, complaint scale 0-6, median change [8]: −3.0
- Ability to perform normal activities, complaint scale 0-6, mean change (patients with cough, n = 106): −2.255
- Ability to perform normal activities, complaint scale 0-6, median change (patients with cough, n = 106): −2.0
- Ability to perform normal activities, complaint scale 0-6, mean change (patients with fever, n = 21): −3.238
- Ability to perform normal activities, complaint scale 0-6, median change (patients with fever, n = 21): −4.0
- Ability to perform normal activities, complaint scale 0-6, mean change [9]: −2.419
- Ability to perform normal activities, complaint scale 0-6, median change [9]: −3.0
- Ability to perform normal activities constant vs baseline, % of patients [10]: 11.11%
- Ability to perform normal activities constant vs baseline, patients [10]: 3
- Ability to perform normal activities improved vs baseline, % of patients [10]: 74.07%
- Ability to perform normal activities improved vs baseline, patients [10]: 20
- Ability to perform normal activities worse vs baseline, % of patients [10]: 14.81%
- Ability to perform normal activities worse vs baseline, patients [10]: 4
- Ability to perform normal activities, complaint scale 0-6, mean [10]: 1.296
- Ability to perform normal activities, complaint scale 0-6, median [10]: 1.000
- Cough complaint scale 0-6, mean [10]: 0.370
- Cough complaint scale 0-6, median [10]: 0.000
- Ability to perform normal activities constant vs baseline, % of patients [11]: 12.00%
- Ability to perform normal activities constant vs baseline, patients [11]: 9
- Ability to perform normal activities improved vs baseline, % of patients [11]: 82.67%
- Ability to perform normal activities improved vs baseline, patients [11]: 62
- Ability to perform normal activities worse vs baseline, % of patients [11]: 5.33%
- Ability to perform normal activities worse vs baseline, patients [11]: 4
- Ability to perform normal activities, complaint scale 0-6, mean [11]: 0.787
- Ability to perform normal activities, complaint scale 0-6, median [11]: 0.000
- Presence of cough constant vs baseline, % of patients [11]: 54.67%
- Presence of cough constant vs baseline, patients [11]: 41
- Presence of cough improved vs baseline, % of patients [11]: 42.67%
- Presence of cough improved vs baseline, patients [11]: 32
- Presence of cough worse vs baseline, % of patients [11]: 2.67%
- Presence of cough worse vs baseline, patients [11]: 2
- Reduced physical performance constant vs baseline, % of patients [11]: 38.67%
- Reduced physical performance constant vs baseline, patients [11]: 29
- Reduced physical performance improved vs baseline, % of patients [11]: 56.00%
- Reduced physical performance improved vs baseline, patients [11]: 42
- Reduced physical performance worse vs baseline, % of patients [11]: 5.33%
- Reduced physical performance worse vs baseline, patients [11]: 4
- Ability to perform normal activities, complaint scale 0-6, mean [12]: 1.067
- Ability to perform normal activities, complaint scale 0-6, median [12]: 0.0
- Ability to perform normal activities, complaint scale 0-6, mean [13]: 0.660
- Ability to perform normal activities, complaint scale 0-6, median [13]: 0.0
- Ability to perform normal activities, complaint scale 0-6, mean [14]: 0.762
- Ability to perform normal activities, complaint scale 0-6, median [14]: 0.0
- Ability to perform normal activities constant vs baseline, % of patients [15]: 11.97%
- Ability to perform normal activities constant vs baseline, patients [15]: 14
- Ability to perform normal activities improved vs baseline, % of patients [15]: 82.05%
- Ability to perform normal activities improved vs baseline, patients [15]: 96
- Ability to perform normal activities worse vs baseline, % of patients [15]: 5.98%
- Ability to perform normal activities worse vs baseline, patients [15]: 7
- Ability to perform normal activities, complaint scale 0-6, mean [15]: 0.769
- Ability to perform normal activities, complaint scale 0-6, median [15]: 0.0
- Fatigue constant vs baseline, % of patients [15]: 38.46%
- Fatigue constant vs baseline, patients [15]: 45
- Fatigue improved vs baseline, % of patients [15]: 59.83%
- Fatigue improved vs baseline, patients [15]: 70
- Fatigue worse vs baseline, % of patients [15]: 1.71%
- Fatigue worse vs baseline, patients [15]: 2
- Reduced physical performance constant vs baseline, % of patients [15]: 40.17%
- Reduced physical performance constant vs baseline, patients [15]: 47
- Reduced physical performance improved vs baseline, % of patients [15]: 54.70%
- Reduced physical performance improved vs baseline, patients [15]: 64
- Reduced physical performance worse vs baseline, % of patients [15]: 5.13%
- Reduced physical performance worse vs baseline, patients [15]: 6
